Test results: ChEMBL document CHEMBL3621055, “Mechanism of forming trimer, self-assembling nano-particle and inhibiting tumor growth of small molecule CIPPCT” (Medchemcomm, 2014)
Activity calls are given as the source filed them. The rule behind the calls is not given here.

Experiments:
CCRF S-180 [1] = assay: Antitumor activity against mouse S180 cells allografted in ICR mouse assessed as tumor growth inhibition at 2 umol/kg, ip qd for 7 days measured 24 hrs after last dose; assay type: functional, organism-based
HL-60 = assay: Cytotoxicity against human HL60 cells after 48 hrs by MTT assay; assay type: functional, cell-based; conditions: HL-60, 48 h
HepG2 [2] = assay: Drug uptake in human HepG2 cells at 10^-10 M after 15 to 240 mins by fluorescence assay; assay type: ADME, cell-based; conditions: hepg2, 0.0001 µM
HT-29 = assay: Cytotoxicity against human HT-29 cells after 48 hrs by MTT assay; assay type: functional, cell-based; conditions: HT-29, 48 h
HeLa = assay: Cytotoxicity against human HeLa cells after 48 hrs by MTT assay; assay type: functional, cell-based
CCRF S-180 [3] = assay: Antitumor activity against mouse S180 cells allografted in ICR mouse assessed as decrease of uPA levels in serum administered as po qd for 7 days measured 24 hrs after last dose; assay type: functional, organism-based
SW480 = assay: Cytotoxicity against human SW480 cells after 48 hrs by MTT assay; assay type: functional, cell-based; conditions: SW480, 48 h
HepG2 [4] = assay: Cytotoxicity against human HepG2 cells after 48 hrs by MTT assay; assay type: functional, cell-based; conditions: HepG2, 48 h
CCRF S-180 [5] = assay: Antitumor activity against mouse S180 cells allografted in ICR mouse assessed as tumor growth inhibition administered as po qd for 7 days measured 24 hrs after last dose; assay type: functional
CCRF S-180 [6] = assay: Antitumor activity against mouse S180 cells allografted in ICR mouse assessed as tumor growth inhibition at 4 umol/kg, po qd for 7 days measured 24 hrs after last dose; assay type: functional, organism-based

`COc1cccc2c1C(=O)c1c(O)c3c(c(O)c1C2=O)C[C@@](O)(C(=O)CO)C[C@@H]3O[C@H]1C[C@H](N)[C@H](O)[C@H](C)O1` was tested, and the inhibition (CCRF S-180 [1]) was “Active”.
`C[C@H](O)[C@H](NC(=O)[C@H](Cc1c[nH]c2ccccc12)NCC[C@H]1c2[nH]c3ccccc3c2C[C@H]2C(=O)N3CCC[C@H]3C(=O)N21)C(=O)OCc1ccccc1` was tested, and the IC50 (HL-60) was over 10 µM, the Drug uptake (HepG2 [2]) was “Active” and the IC50 (HT-29) was over 20 µM. For the same compound, the IC50 (HeLa) was over 100 µM, the Activity (CCRF S-180 [3]) was “Dose-dependent effect” and the IC50 (SW480) was over 100 µM. For the same compound, the IC50 (HepG2 [4]) was over 60 µM, the MED (CCRF S-180 [5]) was 0.16 µmol/kg and the inhibition (CCRF S-180 [5]) was “Dose-dependent effect”. For the same compound, the inhibition (CCRF S-180 [6]) was “Active”.
